Reference: paper PMC6263107 (Journal of Enzyme Inhibition and Medicinal Chemistry, 2018)
Where “and” joins values, the source holds several entries; their conditions need not be identical. Equal entries are not always repeated. Where two headings read alike, the source gives them in different places.

Key:
[1] = in vitro; format: cell-based; conditions: human
Protocol: The culture medium was refreshed after 24 h of incubation and 100 µl of six different concentrations (1–1000 µM) of test compounds or DMSO (0.1%) were then added. The cell viability was monitored by colourimetric assay with 3-[4,5-dimethylthiazol-2-yl]-2,5-diphenyl-tetrazolium bromide (MTT).
In this sense, all new KTs were submitted to the in vitro cell viability test (MTT assay) using human hepatocellular carcinoma cell line (HepG2)[26], as the most accepted probe to evaluate hepatotoxic effects. For this experiment, six different concentrations from 1 to 1000 µM were used.

[2] = Oxygen radical absorbance capacity assay (ORAC-FL); conditions: ORAC-FL, Trolox equivalents
Protocol: The antioxidant activity of KTs was determined using the ORAC-FL method described by Dávalos et al.[30] using fluorescein as a fluorescent probe with minor modification. Briefly, fluorescein and antioxidant were incubated in a black 96-well microplate (Nunc) for 15 min at 37 °C. The 2,2’-azobis(amidinopropane) dihydrochloride (AAPH) was then added quickly using the built-in injector of Varioskan Flash plate reader (Thermo Scientific).
Results are expressed in the Trolox equivalents (TE) unit in relation to radical scavenging properties of Trolox.

[3] = target: EeAChE (Electrophorus electricus, UniProt O42275); test: biochemical; conditions: mean ± SEM
Protocol: (§1) Ellman’s protocol was followed to perform the anticholinesterasic activity. Briefly, the reaction was carried out in a final volume of 3 ml of a phosphate-buffered solution (0.1 M) at pH =8.0 containing (2.625 µl, 0.35 mM) of 5,5’-dithiobis-2-nitrobenzoic acid (DTNB), 40 µl 1% w/v Bovine Albumin Serum phosphate-buffered solution (BSA), (29 µl, 0.035 U/ml) of EeAChE or (60 µl, 0.05 U/ml) of eqBuChE, and 3 µl of tested compound, which were incubated for 10 min. Then, the acetylthiocholine iodide or butyrylthiocholine was added, and the reaction was incubated for additional 15 min. The activity in absence of compound was used as control.

[4] = target: T1, eqBuChE (Equus caballus, UniProt P81908); test: biochemical; conditions: for IC50: mean ± SEM
T1 construct: serum horse BuChE (eqBuChE); from tissue; host or cells: horse serum
Protocol: as §1

[5] = tested on: SH-SY5Y cells; test: Neuroprotection against Aβ1–40 peptide-induced cell death (MTT); format: cell-based, human; conditions: Aβ 1–40 30 µM
Protocol: (§2) SH-SY5Y cell culture and treatment with compounds 2b–d and 2f. The cultures of human SH-SY5Y neuroblastoma cells kept under a CO2/air (5%/95%) humidified atmosphere at 37 °C for 24 h were treated with 100 µl of the test compounds or DMSO (0.1%) in DMEM/F12 (1:1) medium supplemented with 1% fetal bovine serum, 1X non-essential amino acids, 100 units/ml penicillin and 10 mg/ml streptomycin. Treatment medium was renewed every day for up to 48 h of treatment. MTT assay was then performed.
(§3) SH-SY5Y cells were seeded in 96-well culture plates at a density of 8 × 10^4 cells per well in DMEM/F12 (1:1) medium supplemented with 10% fetal bovine serum, 1X non-essential amino acids, 100 units/mL penicillin and 10 mg/mL streptomycin (Dutscher, France). After 24 h of incubation, the cultures were treated with 100 µl of the test compounds or DMSO (0.1%) in the same medium. Following 24 h, the cells were co-incubated with oligomycin A (10 µM)/rotenone (30 µM) (Sigma, France) or Aβ 1–40 (30 µM) with or without the tested compounds 2b–d and 2f at nontoxic concentrations against cells for an additional period of 24 h. MTT assay was then performed to determine the % of cell viability.
(§4) The ability to prevent the human neuroblastoma cell line SH-SY5Y cell death induced by toxic insults such as Αβ 1–40, implicated in ROS production and apoptosis-related signalling pathways, and oligomycin/rotenone (O/R)[39], was then assayed to determine the neuroprotective capacity of the four less hepatotoxic KTs 2b–d and 2f at nontoxic concentration against SH-SY5Y 3 and 10 µM, using melatonin and KA as reference molecules. For the evaluation of the neuroprotective effect, the cytotoxicity of O/R (10 µM/30 µM) on SH-SY5Y cell viability was determined as well as the toxicity of the selected KTs 2b–d and 2f at.

[6] = tested on: SH-SY5Y cells; test: Neuroprotection against oligomycin/rotenone-induced cell death (MTT); format: cell-based, human; conditions: O 10 µM / R 30 µM
Protocol: as §2, §3, §4

[7] = target: T2, hAChE (Homo sapiens, UniProt P22303); test: biochemical; conditions: at 10µM; Table 1S footnote c
T2 construct: 10 µl of cholinesterase obtained from human erythrocyte hemolyzate, out of blood samples; from tissue; host or cells: human erythrocyte hemolysate from blood samples
Protocol: This blend was preincubated for 5 min and 20 µl of 0.01 M substrate (ATCh or BTCh) was added to initiate the reaction. […] The IC50 values are expressed as a mean ± SEM.
Next, as planned at the beginning of the project, the analysis of the antioxidant capacity of KT 2a–d, 2f–h, and 2l was carried out.

[8] = HepG2 cells, 1 µM, percent of cell viability vs DMSO-treated control, read-out: HepG2 cell viability
[9] = HepG2 cells, 3 µM, percent of cell viability vs DMSO-treated control, read-out: HepG2 cell viability
[10] = HepG2 cells, 10 µM, percent of cell viability vs DMSO-treated control, read-out: HepG2 cell viability
[11] = HepG2 cells, 30 µM, percent of cell viability vs DMSO-treated control, read-out: HepG2 cell viability
[12] = HepG2 cells, 100 µM, percent of cell viability vs DMSO-treated control, read-out: HepG2 cell viability
[13] = HepG2 cells, 300 µM, percent of cell viability vs DMSO-treated control, read-out: HepG2 cell viability
[14] = HepG2 cells, 1000 µM, percent of cell viability vs DMSO-treated control, read-out: HepG2 cell viability

Sequence of EeAChE (O42275 24-633): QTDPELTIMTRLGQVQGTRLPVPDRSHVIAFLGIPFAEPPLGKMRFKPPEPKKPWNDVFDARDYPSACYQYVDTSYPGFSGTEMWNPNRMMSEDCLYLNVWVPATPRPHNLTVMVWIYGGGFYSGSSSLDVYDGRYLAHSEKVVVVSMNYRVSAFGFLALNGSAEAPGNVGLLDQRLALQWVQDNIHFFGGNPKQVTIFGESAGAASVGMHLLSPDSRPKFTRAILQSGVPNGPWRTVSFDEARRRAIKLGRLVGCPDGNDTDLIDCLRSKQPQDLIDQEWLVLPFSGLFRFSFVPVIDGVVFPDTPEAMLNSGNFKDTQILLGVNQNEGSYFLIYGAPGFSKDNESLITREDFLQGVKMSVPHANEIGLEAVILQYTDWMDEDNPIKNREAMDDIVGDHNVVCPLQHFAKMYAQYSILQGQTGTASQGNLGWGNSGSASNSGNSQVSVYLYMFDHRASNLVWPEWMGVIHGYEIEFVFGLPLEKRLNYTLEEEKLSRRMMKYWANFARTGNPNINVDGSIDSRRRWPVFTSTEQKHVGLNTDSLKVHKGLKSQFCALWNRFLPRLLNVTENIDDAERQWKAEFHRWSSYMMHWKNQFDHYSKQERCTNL
T1 sequence (P81908 whole entry): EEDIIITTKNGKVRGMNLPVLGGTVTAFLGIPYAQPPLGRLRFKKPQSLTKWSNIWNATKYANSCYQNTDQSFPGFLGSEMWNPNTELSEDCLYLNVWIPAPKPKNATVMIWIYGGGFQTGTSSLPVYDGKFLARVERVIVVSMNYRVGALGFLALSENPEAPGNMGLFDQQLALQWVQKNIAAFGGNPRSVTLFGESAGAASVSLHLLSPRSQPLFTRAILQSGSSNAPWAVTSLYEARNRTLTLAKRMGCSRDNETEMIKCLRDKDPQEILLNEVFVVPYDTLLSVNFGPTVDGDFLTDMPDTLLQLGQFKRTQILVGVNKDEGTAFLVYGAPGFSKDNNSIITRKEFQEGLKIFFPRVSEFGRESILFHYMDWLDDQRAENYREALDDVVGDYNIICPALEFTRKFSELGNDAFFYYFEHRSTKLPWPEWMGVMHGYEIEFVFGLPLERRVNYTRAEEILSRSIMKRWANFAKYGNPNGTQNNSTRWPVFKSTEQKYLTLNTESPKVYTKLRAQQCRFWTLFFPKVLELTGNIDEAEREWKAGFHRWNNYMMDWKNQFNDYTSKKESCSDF
T2 sequence (P22303 32-617 isoform P22303-2 limits assumed): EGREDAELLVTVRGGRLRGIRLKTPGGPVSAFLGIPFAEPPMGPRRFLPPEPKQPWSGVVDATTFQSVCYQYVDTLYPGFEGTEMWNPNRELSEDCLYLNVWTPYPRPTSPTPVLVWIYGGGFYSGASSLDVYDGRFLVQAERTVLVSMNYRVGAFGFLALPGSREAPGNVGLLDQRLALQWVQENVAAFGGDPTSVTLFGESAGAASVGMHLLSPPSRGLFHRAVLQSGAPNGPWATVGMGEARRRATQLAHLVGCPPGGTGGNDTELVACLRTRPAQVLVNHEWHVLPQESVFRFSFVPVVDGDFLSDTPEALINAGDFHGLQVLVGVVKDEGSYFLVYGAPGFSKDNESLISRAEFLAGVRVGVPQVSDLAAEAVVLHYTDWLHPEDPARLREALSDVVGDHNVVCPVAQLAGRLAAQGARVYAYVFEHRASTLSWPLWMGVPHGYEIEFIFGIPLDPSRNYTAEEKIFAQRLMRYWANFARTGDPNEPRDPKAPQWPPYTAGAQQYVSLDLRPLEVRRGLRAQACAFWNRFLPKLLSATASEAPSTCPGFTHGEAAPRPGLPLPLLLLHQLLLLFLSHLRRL

Nc1c2c(nc3c1C(c1cccc(F)c1)c1oc(CO)cc(=O)c1O3)CCCC2 (stereo not shown) [KT2g]
viability at 1 µM [1, 8]: 101 ± 7.1% | viability at 3 µM [1, 9]: 96.5 ± 7.4% | viability at 10 µM [1, 10]: 99.1 ± 3.8% | viability at 30 µM [1, 11]: 109 ± 6.1% | viability at 100 µM [1, 12]: 103 ± 6.4% | viability at 300 µM [1, 13]: 90.5 ± 9.6% | viability at 1000 µM [1, 14]: 62.6 ± 9.7% | ORAC [2]: 4.34±0.17 TE | IC50 [3]: 2140 ± 120 nM | IC50 [4]: 4540 ± 200 nM

Nc1c2c(nc3c1C(c1cccc(Cl)c1)c1oc(CO)cc(=O)c1O3)CCCC2 (stereo not shown) [KT2j]
viability at 1 µM [1, 8]: 97.6 ± 2% | viability at 3 µM [1, 9]: 101 ± 5.4% | viability at 10 µM [1, 10]: 105 ± 5.5% | viability at 30 µM [1, 11]: 99.6 ± 2.4% | viability at 100 µM [1, 12]: 102 ± 6.9% | viability at 300 µM [1, 13]: 52.7 ± 8.3% | viability at 1000 µM [1, 14]: 14.5 ± 6.4% | ORAC [2]: 4.67±0.31 TE | IC50 [3]: 820 ± 50 nM | IC50 [4]: 4190 ± 110 nM

Nc1c2c(nc3c1C(c1ccccc1Cl)c1oc(CO)cc(=O)c1O3)CCCC2 (stereo not shown) [KT2i]
viability at 1 µM [1, 8]: 98.6 ± 1.4% | viability at 3 µM [1, 9]: 100 ± 1.9% | viability at 10 µM [1, 10]: 99.4 ± 1.2% | viability at 30 µM [1, 11]: 105 ± 2.6% | viability at 100 µM [1, 12]: 95.2 ± 4.7% | viability at 300 µM [1, 13]: 64.4 ± 6.3% | viability at 1000 µM [1, 14]: 23.1 ± 6% | ORAC [2]: 4.84±0.06 TE | IC50 [3]: 760 ± 90 nM | IC50 [4]: 8540 ± 120 nM

Nc1c2c(nc3ccccc13)CCCC2 [Tacrine, tacrine, reference compound]
viability at 1 µM [1]: 112 ± 4% | viability at 3 µM [1]: 114 ± 4.8% | viability at 10 µM [1]: 108 ± 3.4% | viability at 30 µM [1]: 110 ± 4.2% | viability at 100 µM [1]: 102 ± 2.4% | viability at 300 µM [1]: 42.4 ± 2% | viability at 1000 µM [1]: 10.9 ± 2% | ORAC [2]: 0.2 ± 0.1 TE

COc1ccccc1C1c2oc(CO)cc(=O)c2Oc2nc3c(c(N)c21)CCCC3 (stereo not shown) [KT2c]
Aβ1–40 (%) neuroprotection ([5]; compound 3 µM): np | Aβ1–40 (%) neuroprotection ([5]; compound 10 µM): np | viability at 1 µM [1, 8]: 94.7 ± 2.4% | viability at 3 µM [1, 9]: 103 ± 2.8% | viability at 10 µM [1, 10]: 99 ± 1.1% | viability at 30 µM [1, 11]: 98.2 ± 2.2% | viability at 100 µM [1, 12]: 96.1 ± 1.5% | viability at 300 µM [1, 13]: 88.5 ± 7.1% | viability at 1000 µM [1, 14]: 70.7 ± 7.7% | ORAC [2]: 6.05±0.41 TE and 6.05 TE | O/R (%) neuroprotection ([6]; compound 3 µM): 12.18 ± 0.08% | O/R (%) neuroprotection ([6]; compound 10 µM): 16.56 ± 0.02% | IC50 [3]: 2390 ± 20 nM | inhibition at 10 µM ([4]; at 10 μM, Table 2 footnote b): < 50% | inhibition at 10 µM [7]: < 50%

COc1ccc(C2c3oc(CO)cc(=O)c3Oc3nc4c(c(N)c32)CCCC4)cc1 (stereo not shown) [KT2e]
viability at 1 µM [1, 8]: 95.5 ± 5.5% | viability at 3 µM [1, 9]: 96.1 ± 7.1% | viability at 10 µM [1, 10]: 95.9 ± 5.6% | viability at 30 µM [1, 11]: 98.3 ± 3.8% | viability at 100 µM [1, 12]: 86.1 ± 3.8% | viability at 300 µM [1, 13]: 70.9 ± 4.5% | viability at 1000 µM [1, 14]: 41.7 ± 3% | ORAC [2]: 4.46±0.27 TE | IC50 [3]: 1140 ± 20 nM | IC50 [4]: 7570 ± 130 nM

COc1cc(/C=C/C(=O)O)ccc1O [FA, ferulic acid, reference compound]
ORAC [2]: 3.74±0.22 TE and 3.74 TE
